Reference: patent US6936270B2, “Device and method for treating conditions of a joint” (Control Delivery Systems, Inc., priority 2000, dated 2005)
Read-outs that look alike come from different tables or passages of the source.

Columns and labels:
[1] = Fluocinolone acetonide concentration in dog plasma after bilateral intraarticular implants (twelve month toxicity study in beagle dogs); type: in vivo, Canis familiaris; details: other: bilateral intraarticular implants (knee joints)
Procedure: Devices were administered once via bilateral intraarticular implants. The day of surgical implantation was Day 1. The devices were made as follows. Fluocinolone acetonide, USP, was compressed into 1.5 mm diameter tablets using standard pharmaceutical methods. The tablets were placed into preformed cups made from silicone elastomer. Cup size was dependent on dosage form. These cups were attached to […] (PVA) suture tabs. For the 2 mg implants, the surface of the tablet not coated with silicone was attached to a suture tab with PVA solution. For the 6 mg implant, a side of the silicone cup was attached perpendicular to the suture tab. Finally, the assemblies were dip coated with PVA. The implants were then cured at 135° C. for 5 hours and placed within the primary package. The product in the primary package was placed in a self-adhesive pouch and sterilized using gamma irradiation. Surgery was performed on both knee joints of all animals. A lateral skin incision was made to expose the fascia lata overlying the vastus lateralis cranially and the biceps fernoris caudally. The joint was exposed through an incision in the lateral intermuscular septum to expose the femur by anterior retraction of the vastus lateralis and posterior retraction of the biceps femoris. Care was taken not to disrupt the tendon of origin of the long digital extensor as it originates from the lateral femoral condyle. The joint capsule was opened, the patella luxated medially, and the joint was held in full flexion. 2 mg devices were placed in the right leg and 18 mg implants were placed in the left leg. The implants were placed within the anterior intercondyloid fossa, immediately lateral to the origin of the posterior cruciate ligament. The bone may be slightly deepened at this location with a curette to accept the implant. The implant was sutured in place to the posterior cruciate ligament. The joint capsule was closed with 3/0 PDS in a simple interrupted fashion. The retinaculum and intermuscular septum were closed with 2/0 Vicryl in a continuous pattern. The fascia lata were closed with 2/0 PDS, and the subcutaneous tissues with 3/0 PDS, both in a simple continuous pattern. The skin was closed with 3/0 Vicryl in a subcuticular pattern. Blood was collected from a peripheral vessel. Blood volumes represent whole blood and are approximate amounts. The blood samples were processed for plasma, the plasma was extracted, and the plasma was placed immediately in a ≦−70°C. freezer until transferred for analysis.

[2] = Fluocinolone acetonide concentration in dog synovial fluid after intraarticular implants in knee joints; type: in vivo, Canis familiaris; details: for Assayed Concentrations of Fluocinolone Acetonide in Dog Synovial Fluid Samples (Right Leg): Right leg (2 mg devices); for concentration at 3 day / concentration at 7 day / concentration at 21 day / concentration at 29 day / concentration at 56 day: dog, synovial fluid (left knee joint), other: bilateral intraarticular implants (knee joints), 18 mg, Left leg (18 mg implants), read-out: Assayed Concentrations of Fluocinolone Acetonide in Dog Synovial Fluid Samples (Left Leg)
Procedure: Devices were administered once via bilateral intraarticular implants. The day of surgical implantation was Day 1. The devices were made as follows. Fluocinolone acetonide, USP, was compressed into 1.5 mm diameter tablets using standard pharmaceutical methods. The tablets were placed into preformed cups made from silicone elastomer. Cup size was dependent on dosage form. These cups were attached to […] (PVA) suture tabs. For the 2 mg implants, the surface of the tablet not coated with silicone was attached to a suture tab with PVA solution. For the […] implant, a side of the silicone cup was attached perpendicular to the suture tab. Finally, the assemblies were dip coated with PVA. The implants were then cured at 135° C. for 5 hours and placed within the primary package. The product in the primary package was placed in a self-adhesive pouch and sterilized using gamma irradiation. Surgery was performed on both knee joints of all animals. A lateral skin incision was made to expose the fascia lata overlying the vastus lateralis cranially and the biceps fernoris caudally. The joint was exposed through an incision in the lateral intermuscular septum to expose the femur by anterior retraction of the vastus lateralis and posterior retraction of the biceps femoris. Care was taken not to disrupt the tendon of origin of the long digital extensor as it originates from the lateral femoral condyle. The joint capsule was opened, the patella luxated medially, and the joint was held in full flexion. 2 mg devices were placed in the right leg and 18 mg implants were placed in the left leg. The implants were placed within the anterior intercondyloid fossa, immediately lateral to the origin of the posterior cruciate ligament. The bone may be slightly deepened at this location with a curette to accept the implant. The implant was sutured in place to the posterior cruciate ligament. The joint capsule was closed with 3/0 PDS in a simple interrupted fashion. The retinaculum and intermuscular septum were closed with 2/0 Vicryl in a continuous pattern. The fascia lata were closed with 2/0 PDS, and the subcutaneous tissues with 3/0 PDS, both in a simple continuous pattern. The skin was closed with 3/0 Vicryl in a subcuticular pattern. After anesthesia (acepromazine, 0.2 mg/kg. IM followed by sodium pentobarbital, 22 mg/kg, IV, to effect), an attempt was made to obtain synovial fluid. Syriovial fluid samples were immediately stored at ≦−70° C. in polypropylene tubes until transferred.

Assayed Concentrations of Fluocinolone Acetonide in Dog Synovial Fluid Samples (Right Leg) ([2]; Dog 1001, Day 21): 7.27 ng/mL | Assayed Concentrations of Fluocinolone Acetonide in Dog Synovial Fluid Samples (Right Leg) ([2]; Dog 2001, Day 7): 98.4 ng/mL | Assayed Concentrations of Fluocinolone Acetonide in Dog Synovial Fluid Samples (Right Leg) ([2]; Dog 2002, Day 7): 47.7 ng/mL | Assayed Concentrations of Fluocinolone Acetonide in Dog Synovial Fluid Samples (Right Leg) ([2]; Dog 2002, Day 21): 144 ng/mL | Assayed Concentrations of Fluocinolone Acetonide in Dog Synovial Fluid Samples (Right Leg) ([2]; Dog 3001, Day 7): 171 ng/mL | Assayed Concentrations of Fluocinolone Acetonide in Dog Synovial Fluid Samples (Right Leg) ([2]; Dog 3001, Day 21): 51.5 ng/mL | Assayed Concentrations of Fluocinolone Acetonide in Dog Synovial Fluid Samples (Right Leg) ([2]; Dog 3002, Day 7): 8.30 ng/mL | concentration at 3 day ([2]; Dog 1001, Day 3): 656 ng/mL | concentration at 7 day ([2]; Dog 1001, Day 7): 290 ng/mL | concentration at 21 day ([2]; Dog 1001, Day 21): 1070 ng/mL | concentration at 29 day ([2]; Dog 1001, Day 29): 457 ng/mL | concentration at 56 day ([2]; Dog 1001, Day 56): 202000 ng/mL | concentration at 3 day ([2]; Dog 1002, Day 3): 357 ng/mL | concentration at 7 day ([2]; Dog 1002, Day 7): 405 ng/mL | concentration at 21 day ([2]; Dog 1002, Day 21): 373 ng/mL | concentration at 29 day ([2]; Dog 1002, Day 29): 379 ng/mL | concentration at 56 day ([2]; Dog 1002, Day 56): 541 ng/mL | concentration at 3 day ([2]; Dog 2001, Day 3): 89 ng/mL | concentration at 7 day ([2]; Dog 2001, Day 7): 194 ng/mL
SMILES: CC1(C)O[C@@H]2C[C@H]3[C@@H]4C[C@H](F)C5=CC(=O)C=C[C@]5(C)[C@@]4(F)[C@@H](O)C[C@]3(C)[C@]2(C(=O)CO)O1 [Fluocinolone Acetonide]
concentration at 3 day ([1]; Dog 1001, Day 3, read-out: Assayed Concentrations of Fluocinolone Acetonide in Dog Plasma Samples): 1.89 ng/mL | concentration at 21 day ([1]; Dog 1001, Day 21, read-out: Assayed Concentrations of Fluocinolone Acetonide in Dog Plasma Samples): 0.57 ng/mL | concentration at 7 day ([1]; Dog 3001, Day 7, read-out: Assayed Concentrations of Fluocinolone Acetonide in Dog Plasma Samples): 16.9 ng/mL | concentration at 21 day ([1]; Dog 3001, Day 21, read-out: Assayed Concentrations of Fluocinolone Acetonide in Dog Plasma Samples): 4.92 ng/mL
